Laboratory results: patent US20020172694A1, “Extended release formulation of diltiazem hydrochloride” (DOV Pharmaceutical, Inc., priority 2001, published 2002)
Where a name gives a salt, the structure may show the parent alone.

Key:
[1] = single oral dose, healthy individual, FIG. 6
Protocol: One hundred twenty milligrams (120 mg) of diltiazem hydrochloride powder were combined with a 360 mg dose of DILTIAZEM OD ER. […] Consequently, this mixture contained approximately 25 percent by weight of a quick release preparation of diltiazem, and approximately 75 percent by weight of a slow release preparation of diltiazem, based upon the percentage of diltiazem in the final mixture.
The resulting mixture was then encapsulated in a larger gelatin capsule and orally administered to a healthy individual, taking no medications which would affect diltiazem plasma levels or interfere with their proper determination. Controls containing either 120 mg diltiazem hydrochloride or 360 mg Diltiazem ER were administered separately. An interval of approximately 5-7 days elapsed between the administration of each agent tested in this example.
An intravenous blood sample was withdrawn into pre-cooled, commercially available [sequence] (TM) containing EDTA (ethylenediamine tetraacetic acid) as an anticoagulant Just before administration of the test agent; this sample represented the zero time sample. The blood sample was centrifuged for 15 minutes under conditions known to those skilled in the art. […] The plasma levels of diltiazem were determined by HPLC (High Performance Liquid Chromatography) analysis according to the method of Eradiri (36).

[2] = in vivo; cited from earlier work
angina pectoris = settings: cited from earlier work

Row | SMILES | time after administration by which most of the preparation is gone [1] [h] | time to peak plasma levels of diltiazem after administration [1] [h] | plasma half-life [2] [h] | incidence of side effects versus other calcium channel blockers (angina pectoris; comparative studies) | efficacy versus beta-adrenergic receptor blockers, nitrates and verapamil (angina pectoris; in vivo) | efficacy versus nifedipine (angina pectoris; in vivo)
1 | COc1ccc([C@@H]2Sc3ccccc3N(CCN(C)C)C(=O)[C@@H]2OC(C)=O)cc1 [diltiazem hydrochloride] | 5 to 6 | 1 to 2 | – | – | – | –
2 | COc1ccc([C@@H]2Sc3ccccc3N(CCN(C)C)C(=O)[C@@H]2OC(C)=O)cc1 [diltiazem, 25-cis-3-(Acetoxyl)-5-[2-(dimethylamino)ethyl]-2-3-dihydro-2-(4-methoxyphenyl)-1,5-benzothiazepin-4(5H)-one] | – | – | 2 to 6 | lower incidence of side effects | equivalent | more effective
